Experimental data as given in patent US8952157B2, “Apoptosis-inducing agents for the treatment of cancer and immune and autoimmune diseases” (AbbVie Inc., priority 2008, dated 2015).
pKi: −log10 of the molar value.

Each compound was assayed against GST-Bcl-2 (Homo sapiens (Human), UniProt P10415) (assay: Time Resolved-Fluorescence Resonance Energy Transfer (TR-FRET) Bcl-2 binding assay). Conditions: not given.
Method in brief: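 Ki values derived from TR-FRET displacement of F-Bak peptide from GST-Bcl-2, detected with Tb-labelled anti-GST antibody (ex 340, em 520/495 nm). Compound dilution series started at 50 μM (2× starting concentration); room-temperature incubation 3 hours.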

Chain of GST-Bcl-2 (P10415 whole entry): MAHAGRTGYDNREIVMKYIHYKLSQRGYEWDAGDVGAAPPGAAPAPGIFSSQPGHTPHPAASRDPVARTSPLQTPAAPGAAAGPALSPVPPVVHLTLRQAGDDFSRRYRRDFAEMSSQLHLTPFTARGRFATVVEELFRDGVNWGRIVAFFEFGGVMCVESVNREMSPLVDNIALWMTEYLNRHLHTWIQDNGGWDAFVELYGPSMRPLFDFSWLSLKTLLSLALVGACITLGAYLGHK

Compound | pKi
CC1(C)CCC(CN2CCN(c3ccc(C(=O)NS(=O)(=O)c4ccc(N[C@H]5CC[C@H](N6CCOCC6)CC5)c([N+](=O)[O-])c4)c(Oc4cc5cc[nH]c5cc4Cl)c3)CC2)=C(c2ccc(Cl)cc2)C1 [Example 293, Trans-2-[(6-chloro-1H-indol-5-yl)oxy]-4-(4-{[2-(4-chlorophenyl)-4,4-dimethylcyclohex-1-en-1-yl]methyl}piperazin-1-yl)-N-({4-[(4-morpholin-4-ylcyclohexyl)amino]-3-nitrophenyl}sulfonyl)benzamide] | 9.63
CC1(C)CC(c2ccc(Cl)cc2)=C(CN2CCN(c3ccc(C(=O)NS(=O)(=O)c4ccc(N[C@H]5CC[C@H](N6CCOCC6)CC5)c([N+](=O)[O-])c4)c(Oc4cc5cc[nH]c5cc4Cl)c3)CC2)CO1 [Example 294, Trans-2-[(6-chloro-1H-indol-5-yl)oxy]-4-(4-{[4-(4-chlorophenyl)-6,6-dimethyl-5,6-dihydro-2H-pyran-3-yl]methyl}piperazin-1-yl)-N-({4-[(4-morpholin-4-ylcyclohexyl)amino]-3-nitrophenyl}sulfonyl)benzamide] | 9.90
CC1(C)CCC(CN2CCN(c3ccc(C(=O)NS(=O)(=O)c4ccc(N[C@H]5CC[C@H](N6CCOCC6)CC5)c([N+](=O)[O-])c4)c(Oc4cccc5c4CCNC5=O)c3)CC2)=C(c2ccc(Cl)cc2)C1 [Example 304, Trans-4-(4-{[2-(4-chlorophenyl)-4,4-dimethylcyclohex-1-en-1-yl]methyl}piperazin-1-yl)-N-({4-[(4-morpholin-4-ylcyclohexyl)amino]-3-nitrophenyl}sulfonyl)-2-[(1-oxo-1,2,3,4-tetrahydroisoquinolin-5-yl)oxy]benzamide] | 9.09
CC1(C)CCC(CN2CCN(c3ccc(C(=O)NS(=O)(=O)c4cnc(N[C@H]5CC[C@H](N6CCOCC6)CC5)c(Br)c4)c(Oc4cc5cc[nH]c5cc4F)c3)CC2)=C(c2ccc(Cl)cc2)C1 [Example 307, Trans-N-({5-bromo-6-[(4-morpholin-4-ylcyclohexyl)amino]pyridin-3-yl}sulfonyl)-4-(4-{[2-(4-chlorophenyl)-4,4-dimethylcyclohex-1-en-1-yl]methyl}piperazin-1-yl)-2-[(6-fluoro-1H-indol-5-yl)oxy]benzamide] | 9.28

Same assay, conditions: GST-Bcl-2 1 nM, F-Bak peptide probe 100 nM, Tb-anti-GST antibody 1 nM; Ki by Wang's equation

Compound | pKi
CC1(C)CCC(CN2CCN(c3ccc(C(=O)NS(=O)(=O)c4ccc(NC5CCN(C6CCOCC6)CC5)c([N+](=O)[O-])c4)c(Oc4cccc5c4CC(=O)N5)c3)CC2)=C(c2ccc(Cl)cc2)C1 [Example 289, 4-(4-{[2-(4-chlorophenyl)-4,4-dimethylcyclohex-1-en-1-yl]methyl}piperazin-1-yl)-N-({3-nitro-4-[(1-tetrahydro-2H-pyran-4-ylpiperidin-4-yl)amino]phenyl}sulfonyl)-2-[(2-oxo-2,3-dihydro-1H-indol-4-yl)oxy]benzamide] | > 11.00
CC1(C)CCC(CN2CCN(c3ccc(C(=O)NS(=O)(=O)c4ccc(OCC5COCCO5)c([N+](=O)[O-])c4)c(Oc4cc5cc[nH]c5cc4Cl)c3)CC2)=C(c2ccc(Cl)cc2)C1 (stereo not shown) [Example 290, 2-[(6-chloro-1H-indol-5-yl)oxy]-4-(4-{[2-(4-chlorophenyl)-4,4-dimethylcyclohex-1-en-1-yl]methyl}piperazin-1-yl)-N-{[4-(1,4-dioxan-2-ylmethoxy)-3-nitrophenyl]sulfonyl}benzamide] | 9.60
CC1(C)CCC(CN2CCN(c3ccc(C(=O)NS(=O)(=O)c4ccc(NCC5COCCO5)c([N+](=O)[O-])c4)c(Oc4cc5cc[nH]c5cc4Cl)c3)CC2)=C(c2ccc(Cl)cc2)C1 (stereo not shown) [Example 291, 2-[(6-chloro-1H-indol-5-yl)oxy]-4-(4-{[2-(4-chlorophenyl)-4,4-dimethylcyclohex-1-en-1-yl]methyl}piperazin-1-yl)-N-({4-[(1,4-dioxan-2-ylmethyl)amino]-3-nitrophenyl}sulfonyl)benzamide] | 9.56
CC1(C)CCC(CN2CCN(c3ccc(C(=O)NS(=O)(=O)c4ccc(NCC5COCCO5)c([N+](=O)[O-])c4)c(Oc4cc5cc[nH]c5cc4F)c3)CC2)=C(c2ccc(Cl)cc2)C1 (stereo not shown) [Example 292, 4-(4-{[2-(4-chlorophenyl)-4,4-dimethylcyclohex-1-en-1-yl]methyl}piperazin-1-yl)-N-({4-[(1,4-dioxan-2-ylmethyl)amino]-3-nitrophenyl}sulfonyl)-2-[(6-fluoro-1H-indol-5-yl)oxy]benzamide] | 9.72
CC1(C)CC(c2ccc(Cl)cc2)=C(CN2CCN(c3ccc(C(=O)NS(=O)(=O)c4ccc(NC5CCC(N6CCOCC6)CC5)c([N+](=O)[O-])c4)c(Oc4cc5cc[nH]c5cc4F)c3)CC2)CO1 (stereo not shown) [Example 295, 4-(4-{[4-(4-chlorophenyl)-6,6-dimethyl-5,6-dihydro-2H-pyran-3-yl]methyl}piperazin-1-yl)-2-[(6-fluoro-1H-indol-5-yl)oxy]-N-({4-[(4-morpholin-4-ylcyclohexyl)amino]-3-nitrophenyl}sulfonyl)benzamide] | 10.11
CC1(C)CCC(CN2CCN(c3ccc(C(=O)NS(=O)(=O)c4ccc(OCC5(F)CCOCC5)c([N+](=O)[O-])c4)c(Oc4cc5cc[nH]c5cc4F)c3)CC2)=C(c2ccc(Cl)cc2)C1 [Example 296, 4-(4-{[2-(4-chlorophenyl)-4,4-dimethylcyclohex-1-en-1-yl]methyl}piperazin-1-yl)-2-[(6-fluoro-1H-indol-5-yl)oxy]-N-({4-[(4-fluorotetrahydro-2H-pyran-4-yl)methoxy]-3-nitrophenyl}sulfonyl)benzamide] | > 11.00
CC1(C)CC(c2ccc(Cl)cc2)=C(CN2CCN(c3ccc(C(=O)NS(=O)(=O)c4cnc(OCC5CCOCC5)c(C#N)c4)c(Oc4cc5cc[nH]c5cc4F)c3)CC2)CO1 [Example 298, 4-(4-{[4-(4-chlorophenyl)-6,6-dimethyl-5,6-dihydro-2H-pyran-3-yl]methyl}piperazin-1-yl)-N-{[5-cyano-6-(tetrahydro-2H-pyran-4-ylmethoxy)pyridin-3-yl]sulfonyl}-2-[(6-fluoro-1H-indol-5-yl)oxy]benzamide] | 10.27
CC1(C)CCC(CN2CCN(c3ccc(C(=O)NS(=O)(=O)c4ccc(NCC5CCOCC5)c([N+](=O)[O-])c4)c(Oc4ccc5[nH]cc(CCN)c5c4)c3)CC2)=C(c2ccc(Cl)cc2)C1 [Example 299, 2-{[3-(2-aminoethyl)-1H-indol-5-yl]oxy}-4-(4-{[2-(4-chlorophenyl)-4,4-dimethylcyclohex-1-en-1-yl]methyl}piperazin-1-yl)-N-({3-nitro-4-[(tetrahydro-2H-pyran-4-ylmethyl)amino]phenyl}sulfonyl)benzamide] | 7.29
CN1CCN(Nc2ccc(S(=O)(=O)NC(=O)c3ccc(N4CCN(CC5=C(c6ccc(Cl)cc6)CC(C)(C)CC5)CC4)cc3Oc3ccc4[nH]cc(CCN)c4c3)cc2[N+](=O)[O-])CC1 [Example 300, 2-{[3-(2-aminoethyl)-1H-indol-5-yl]oxy}-4-(4-{[2-(4-chlorophenyl)-4,4-dimethylcyclohex-1-en-1-yl]methyl}piperazin-1-yl)-N-({4-[(4-methylpiperazin-1-yl)amino]-3-nitrophenyl}sulfonyl)benzamide] | 7.86
CC1(C)CCC(CN2CCN(c3ccc(C(=O)NS(=O)(=O)c4cnc(OCC5CCOCC5)c(C#N)c4)c(Oc4cc5cc[nH]c5cc4F)c3)CC2)=C(c2ccc(Cl)cc2)C1 [Example 301, 4-(4-{[2-(4-chlorophenyl)-4,4-dimethylcyclohex-1-en-1-yl]methyl}piperazin-1-yl)-N-{[5-cyano-6-(tetrahydro-2H-pyran-4-ylmethoxy)pyridin-3-yl]sulfonyl}-2-[(6-fluoro-1H-indol-5-yl)oxy]benzamide] | 9.95
CC1(C)CCC(CN2CCN(c3ccc(C(=O)NS(=O)(=O)c4ccc(NCC5CCOCC5)c([N+](=O)[O-])c4)c(Oc4cnc(N)c(F)c4)c3)CC2)=C(c2ccc(Cl)cc2)C1 [Example 302, 2-[(6-amino-5-fluoropyridin-3-yl)oxy]-4-(4-{[2-(4-chlorophenyl)-4,4-dimethylcyclohex-1-en-1-yl]methyl}piperazin-1-yl)-N-({3-nitro-4-[(tetrahydro-2H-pyran-4-ylmethyl)amino]phenyl}sulfonyl)benzamide] | > 11.00
CC1(C)CCC(CN2CCN(c3ccc(C(=O)NS(=O)(=O)c4cnc(OCC5CCOCC5)c(Cl)c4)c(Oc4cc5cc[nH]c5cc4F)c3)CC2)=C(c2ccc(Cl)cc2)C1 [Example 303, 4-(4-{[2-(4-chlorophenyl)-4,4-dimethylcyclohex-1-en-1-yl]methyl}piperazin-1-yl)-N-{[5-chloro-6-(tetrahydro-2H-pyran-4-ylmethoxy)pyridin-3-yl]sulfonyl}-2-[(6-fluoro-1H-indol-5-yl)oxy]benzamide] | 10.04
CC1(C)CCC(CN2CCN(c3ccc(C(=O)NS(=O)(=O)c4cnc(OCC5COCCO5)c(C#N)c4)c(Oc4cc5cc[nH]c5cc4F)c3)CC2)=C(c2ccc(Cl)cc2)C1 (stereo not shown) [Example 305, 4-(4-{[2-(4-chlorophenyl)-4,4-dimethylcyclohex-1-en-1-yl]methyl}piperazin-1-yl)-N-{[5-cyano-6-(1,4-dioxan-2-ylmethoxy)pyridin-3-yl]sulfonyl}-2-[(6-fluoro-1H-indol-5-yl)oxy]benzamide] | 9.84
CC1(C)CCC(CN2CCN(c3ccc(C(=O)NS(=O)(=O)c4cnc(OCC5COCCO5)c(Br)c4)c(Oc4cc5cc[nH]c5cc4F)c3)CC2)=C(c2ccc(Cl)cc2)C1 (stereo not shown) [Example 306, N-{[5-bromo-6-(1,4-dioxan-2-ylmethoxy)pyridin-3-yl]sulfonyl}-4-(4-{[2-(4-chlorophenyl)-4,4-dimethylcyclohex-1-en-1-yl]methyl}piperazin-1-yl)-2-[(6-fluoro-1H-indol-5-yl)oxy]benzamide] | 9.17
CC1(C)CCC(CN2CCN(c3ccc(C(=O)NS(=O)(=O)c4cnc(OCC5(F)CCOCC5)c(C#N)c4)c(Oc4cc5cc[nH]c5cc4F)c3)CC2)=C(c2ccc(Cl)cc2)C1 [Example 308, 4-(4-{[2-(4-chlorophenyl)-4,4-dimethylcyclohex-1-en-1-yl]methyl}piperazin-1-yl)-N-({5-cyano-6-[(4-fluorotetrahydro-2H-pyran-4-yl)methoxy]pyridin-3-yl}sulfonyl)-2-[(6-fluoro-1H-indol-5-yl)oxy]benzamide] | 10.40
